Source: article PMC11625190 (Synthetic and Systems Biotechnology, 2024)

Tested on: ChAER1
Experiment: HPLC quantification of 4-hydroxydihydrocinnamaldehyde formation, crude enzyme
Assay type: biochemical, Cephalotaxus harringtonia
Conditions: 1 mM NADPH, 50 mM Tris-HCl pH 7.5, 30 °C, 1 h

Km: 467 µM
SMILES: O=C/C=C/c1ccc(O)cc1 [p-coumaraldehyde]
